Test results from patent US6559158B1, “Use of methylnaltrexone and related compounds to treat chronic opioid use side affects” (UR Labs, Inc., priority 1997, dated 2003).
Read-outs that look alike come from different tables or passages of the source.

Legend:
[1] = system: chronic methadone subjects with methadone-induced constipation; test: Example 1: intravenous methylnaltrexone, laxation response and stool frequency in methadone maintenance subjects; type: in vivo, human; conditions: for Stool frequency Methylnaltrexone (per day): during iv methylnaltrexone treatment
Protocol: Methylnaltrexone dose of 0.45 mg/kg was chosen to start this trial because this dose was previously given in normal volunteers and prevented opioid-induced delay of the oral-cecal transit time without any side effects (Yuan et al., Clin. Pharmacol Ther., 59:469-475 (1996)). Drug administration was performed single blind to the subjects in this pilot study. Thus, methylnaltrexone dose could be adjusted based on subjects' clinical response during the study.
All four subjects received placebo (normal saline) on Day 1. Thereafter, subjects received intravenous methylnaltrexone until the end of the study.
On Day 2 at 09:00 hours (h), Subjects 1 and 2 were given 0.45 mg/kg intravenous methylnaltrexone over 1 min. Subject 2 experienced severe abdominal cramps after receiving the compound and was withdrawn from the study. […] Beginning on Day 4, the study was resumed for Subject 1 using 0.45 mg/kg of methylnaltrexone, diluted with 50 ml normal saline and administered over 30 min. Infusion could be stopped at any time for complaints of abdominal pain.
For Subjects 3 and 4, the study was shortened from 8 to 5 days, methylnaltrexone dosage was decreased, and a new, three-step dosing procedure was established. Methylnaltrexone 0.05 mg/kg, mixed in 30 ml normal saline (first syringe), was infused intravenously over 10 min. The subject was then observed 10 min for drug response. If there was no response, then methylnaltrexone 0.1 mg/kg (second syringe), mixed in 30 ml normal saline, was infused over 15 min. Subject was observed 15 min for drug response. If there was no response, then methylnaltrexone 0.3 mg/kg (third syringe), mixed in 30 ml normal saline, was infused over 15 min.
(§1) After each test drug administration, seven blood samples (5 ml each) were obtained at time 0, 5, 30 min, and 1, 2, 4, 8 h, and three urine samples were collected at time 0, 2, and 4 h. Plasma and urine methylnaltrexone levels were determined by an HPLC technique with a detection limit of 2 ng/ml (Kim et al., 1989; Yuan et al., Clin. Pharmacol Ther., 59:469-475 (1996); both herein incorporated by reference). […] Subjects' bowel movements were witnessed and recorded by a research nurse.

[2] = system: chronic methadone subjects; test: Example 1: oral-cecal transit time (lactulose hydrogen breath test); type: in vivo, human; conditions: 150 min after placebo
Protocol: Vital signs were obtained at 0, 5, 10, 30, 60, 90 and 120 min after each test drug administration. For oral-cecal transit time measurement, 10 g lactulose (Solvay Pharmaceuticals, Marietta, Ga.) was administered orally at 09:00 h of Day 1, Day 5 and Day 8 for Subject 1; of Day 1 for Subject 2, and of Day 1, Day 3 and Day 5 for Subjects 3 and 4. Illicit drug use was monitored by random urine drug screens.
(§2) The oral-cecal transit time was assessed by the pulmonary hydrogen (H2) measurement technique, which measures pulmonary H2 that is produced when unabsorbed lactulose is fermented by colonic bacteria and excreted in the breath. This H2 production is reflected by a concomitant increase in breath H2 excretion. […] Dis. Sci., 32:829-832 (1987)). Hydrogen breath tests were conducted every 15 min until oral-cecal transit time was determined.

[3] = Example 1: peak plasma methylnaltrexone level (HPLC); type: in vivo, human
Protocol: as §1

[4] = system: chronic methadone subjects; test: Example 2: oral-cecal transit time (lactulose hydrogen breath test); type: in vivo, human
Protocol: as §2
The oral-cecal transit time was assessed as in Example 1.

[5] = Example 2: plasma levels and urinary excretion of methylnaltrexone; type: in vivo, human; conditions: for Peak plasma level: iv, mean±SD
Protocol: as §1
Blood and Urine Sampling and Analysis were Performed as in Example 1.

[6] = system: chronic methadone subjects; test: Example 3: oral methylnaltrexone, oral-cecal transit time; type: in vivo, human
Protocol: as §2
Twelve constipated adults (≦2 stool/week) were enrolled. […] Drug administrations were single-blinded to the subject.

normal volunteers [7] = test: FIG. 5: oral-cecal transit time of normal volunteers given MNTX; type: in vivo, human; conditions: normal subjects, doses 2.1 mg/kg to 6.4 mg/kg (FIG. 5)
Protocol: FIG. 5 is a comparison of oral-cecal transit times of normal volunteers and methadone maintenance subjects showing the increased responsiveness of chronic opioid patients to MNTX. At doses ranging from 2.1 mg/kg to 6.4 mg/kg, normal subjects experienced about a 15-20% reduction in oral-cecal transit time, while at a dose of 3.0 mg/kg, methadone subjects experienced a greater than 35% reduction in oral-cecal transit time.

[8] = system: morphine-induced changes in oral-cecal transit time; test: Example 4: morphine-induced delay of oral-cecal transit time in subjects given opioids non-chronically; type: in vivo, human; conditions: 0.45 mg/kg methylnaltrexone plus 0.05 mg/kg morphine
Protocol: Sessions were separated by at least 1 week. Each session lasted approximately 7 hours, and the subjects received one of three injections: (1) placebo plus placebo, (2) placebo plus 0.05 mg/kg morphine, or (3) 0.45 mg/kg methylnaltrexone plus 0.05 mg/kg morphine. Injection I was given at the first session, and the subjects were blinded to the medication. Injections 2 and 3 were given in a random order, and the subjects and observers were blinded to the medication. Injection assignments were prepared by random selection on a computer and were sealed in envelopes.
After completion of the above three injections, we asked six of the subjects, beginning with those who had completed the study last, to return for a fourth injection (0.45 mg/kg methylnaltrexone plus 0.1 mg/kg morphine). This was done to evaluate the effects of methylnaltrexone with a higher does of morphine.
Results of the hydrogen breath test after different injections were analyzed with the use of the Wilcoxon matched-pairs signed-rank test, with p<0.05 considered to be statistically significant.

[9] = intravenous; cited from earlier work
normal volunteers [10] = conditions: 0.45 mg/kg iv, cited from earlier work
normal volunteers [11] = conditions: eight normal volunteers, cited from earlier work
[12] = humans; cited from earlier work

C[N@+]1(CC2CC2)CC[C@]23c4c5ccc(O)c4O[C@H]2C(=O)CC[C@@]3(O)[C@H]1C5 [methylnaltrexone, N-methylnaltrexone bromide]
Laxation response ([1]; Subjects 1 and 2, 0.45 mg/kg iv): immediate positive Taxation | Laxation response ([1]; Subjects 3 and 4, 0.05-0.15 mg/kg iv twice daily for 4 consecutive days): immediate laxation response | Stool frequency Methylnaltrexone (per day) ([1]; #1 0.45 mg/kg bid, #2 0.45 mg/kg, #3 and #4 0.05-0.15 mg/kg bid, iv methylnaltrexone 0.45 mg/kg): 1 per day | Stool frequency Methylnaltrexone (per day) ([1]; #1 0.45 mg/kg bid, #2 0.45 mg/kg, #3 and #4 0.05-0.15 mg/kg bid, iv methylnaltrexone 0.05-0.15, bid mg/kg): 2 per day | Stool frequency Methylnaltrexone (per day) ([1]; #1 0.45 mg/kg bid, #2 0.45 mg/kg, #3 and #4 0.05-0.15 mg/kg bid, iv methylnaltrexone 0.05-015, bid mg/kg): 1.3 per day | Stool frequency Methylnaltrexone (per day) ([1]; #1 0.45 mg/kg bid, #2 0.45 mg/kg, #3 and #4 0.05-0.15 mg/kg bid, iv methylnaltrexone 0.45, bid mg/kg): 1.5 per day | stool frequency during the treatment period ([1]; four subjects, iv methylnaltrexone, 1-2 times per week before the study): approximately 1.5 stool per day | Laxation response ([1]; iv methylnaltrexone, #1 0.45 mg/kg bid, #2 0.45 mg/kg, #3 and #4 0.05-0.15 mg/kg bid): Immediate | oral-cecal transit time after methylnaltrexone, at the end of the study ([2]; Subject 1, 0.45 mg/kg iv bid): 90 min | oral-cecal transit time after methylnaltrexone, at the end of the study ([2]; Subject 3, 0.05-0.15 mg/kg iv bid): 60 min | oral-cecal transit time after methylnaltrexone, at the end of the study ([2]; Subject 4, 0.05-0.15 mg/kg iv bid): 60 min | Peak plasma methylnaltrexone level ([3]; Subject 1, 0.45 mg/kg iv): 1.65 µg/mL | Peak plasma methylnaltrexone level ([3]; Subject 2, 0.45 mg/kg iv): 1.10 µg/mL | Peak plasma methylnaltrexone level ([3]; Subject 3, 0.05-0.15 mg/kg iv): 0.25 µg/mL | Peak plasma methylnaltrexone level ([3]; Subject 4, 0.05-0.15 mg/kg iv): 0.53 µg/mL | oral-cecal transit time after study drug ([4]; methylnaltrexone group n=11, Day 2, iv, mean±SD, range 30-105, baseline 132.3±36.0): 54.5 ± 19.3 min | average change in oral-cecal transit time from baseline ([4]; methylnaltrexone group n=11, P<0.001 vs placebo group): -77.7 ± 37.2 min | Peak plasma level ([5]; Day 1, 11 subjects, range 30-774): 162 ± 237 ng/mL | percentage of intravenous dose excreted unchanged in urine from 0 to 4 hr ([5]; Day 1, mean±SD, range 9.6-39.9): 23.7±10.5% | Peak plasma level ([5]; Day 2, 11 subjects, range 33-658): 166 ± 177 ng/mL | percentage of intravenous dose excreted unchanged in urine from 0 to 4 hr ([5]; Day 2, mean±SD, range 13.2-73.6): 37.6±17.8% | reduction in oral-cecal transit time ([6]; methadone subjects, dose of 3.0 mg/kg (FIG. 5)): greater than 35% | dose-related reduction of oral-cecal transit times ([6]; oral 0.3, 1.0, 3.0 mg/kg, p<0.05, Spearman rank correlation and linear regression): significant dose-response effect | reduction in oral-cecal transit time (normal volunteers [7]): 15-20% | oral-cecal transit time ([8]; 12 subjects, mean±SD, not significant vs baseline 104.6±31.1): 106.3 ± 39.8 min | prevention of morphine-induced changes in oral-cecal transit time ([8]; p<0.01 vs morphine alone): 97% | elimination half-life [9]: approximately 2 h | effect on opioid-induced delay in oral-cecal transit time (normal volunteers [10]; healthy volunteers, acute single doses): effectively prevented opioid-induced delay in oral-cecal transit time | effect on analgesia (normal volunteers [10]; healthy volunteers): without affecting analgesia | Laxation response (normal volunteers [10]; normal opioid naive subjects): without any laxation response | side effects (normal volunteers [11]; doses of 0.64 to 1.25 mg/kg): transient orthostatic hypotension | side effects (normal volunteers [11]; doses up to 0.32 mg/kg): did not cause side effects | blood-brain barrier passage [12]: does not cross the blood-brain barrier | de-methylation [12]: do not appreciably de-methylate
